In patent US10556914B2, “Substituted isoxazolopyridazinones and isothiazolopyridazinones and methods of use” (AbbVie Inc., priority 2015, dated 2020):

Target: GABA-B receptor (Rattus norvegicus (Rat), UniProt O88871+Q9Z0U4)
Assay: [35S]GTPgS Binding Assay (rat brain cortex membranes, native receptor)
Format: biochemical
Settings: rat cortical membranes; in the presence of 1 μM GABA (EC25); basal binding 0%, maximal binding (1 mM GABA) 100%
Description: Preparation of Rat Brain Membranes for Native Receptor Assays
Membranes from rat brain cortex were prepared as described in detail by Olpe et al. and stored at concentrations of 1.66 mg/mL protein at −80° C. until required. (Olpe, H.-R, et al. Eur J Pharmacol 1990; 187: 27-38).
[^35S]GTPgS Binding Assay
The samples were incubated at room temperature for 60 minutes on a shaker. The incubation was stopped by rapid vacuum filtration over glass-fiber filter plates (UniFilter-96 well, GF/B membrane plates, PerkinElmer) using a 96-well plate harvester (TOMTEK© Harvester). The UniFilter plate was washed five times with ice-cold wash buffer (50 mM Tris-HCl buffer, pH 7.7, 10 mM MgCl2, and 100 mM NaCl. After filtration the plate was dried for 90 minutes at 55° C. The plates were closed on the bottom with black sealing membranes, and liquid scintillation cocktail (35 μL, Betaplate Scint, PerkinElmer) was added to each well. After sealing the top of the plate, an additional incubation step of 90 minutes at room temperature followed before measuring the plate. The amount of membrane-bound [^35S]GTPgS was measured using a 96-well plate reader (Microbeta®, PerkinElmer). Nonspecific binding was measured in the presence of unlabeled 10 μM of GTPgS (Millipore) and without GABA. Basal binding was measured in the absence of 1 μM GABA, and maximal binding was measured in the presence of GABA using 1 mM GABA concentrations.
Data analysis. The concentration-response curves of compounds of the present disclosure in the presence of EC25 of GABA-B receptor agonist were generated using the GraphPad Prism® program (GraphPad Software, San Diego, Calif.). Data was normalized using basal binding as 0% and maximal binding as 100%. The curves were fitted by nonlinear regression allowing determination of EC50 values from sigmoidal dose-response curves. Each curve was performed using triplicate sample per date point and 10 concentrations.

Sequence of GABA-B receptor (Q9Z0U4 17-960): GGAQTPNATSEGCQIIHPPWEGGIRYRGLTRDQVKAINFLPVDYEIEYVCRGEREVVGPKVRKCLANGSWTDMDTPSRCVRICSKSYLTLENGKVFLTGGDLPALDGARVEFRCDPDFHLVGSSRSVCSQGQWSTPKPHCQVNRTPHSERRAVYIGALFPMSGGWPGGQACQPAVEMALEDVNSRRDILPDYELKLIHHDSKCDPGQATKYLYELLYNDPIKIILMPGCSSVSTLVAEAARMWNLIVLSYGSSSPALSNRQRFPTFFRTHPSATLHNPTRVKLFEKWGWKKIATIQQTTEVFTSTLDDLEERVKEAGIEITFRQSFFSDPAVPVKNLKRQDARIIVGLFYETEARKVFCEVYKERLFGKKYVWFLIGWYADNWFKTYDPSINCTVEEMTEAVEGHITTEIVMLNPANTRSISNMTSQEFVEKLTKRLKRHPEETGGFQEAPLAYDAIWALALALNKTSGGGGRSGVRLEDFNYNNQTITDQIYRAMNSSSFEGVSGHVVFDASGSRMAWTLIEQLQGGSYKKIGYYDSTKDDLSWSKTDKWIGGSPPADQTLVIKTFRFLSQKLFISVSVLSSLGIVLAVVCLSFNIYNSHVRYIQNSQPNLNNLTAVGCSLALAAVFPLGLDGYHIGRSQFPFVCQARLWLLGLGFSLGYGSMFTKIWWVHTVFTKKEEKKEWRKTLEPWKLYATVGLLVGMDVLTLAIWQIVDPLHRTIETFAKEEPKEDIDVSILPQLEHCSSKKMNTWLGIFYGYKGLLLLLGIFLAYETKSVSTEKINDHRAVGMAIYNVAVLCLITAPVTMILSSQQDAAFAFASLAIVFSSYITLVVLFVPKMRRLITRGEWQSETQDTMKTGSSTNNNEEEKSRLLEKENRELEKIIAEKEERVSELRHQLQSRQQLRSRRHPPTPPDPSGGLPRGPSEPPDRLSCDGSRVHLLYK
Sequence of GABA-B receptor (O88871 41-940): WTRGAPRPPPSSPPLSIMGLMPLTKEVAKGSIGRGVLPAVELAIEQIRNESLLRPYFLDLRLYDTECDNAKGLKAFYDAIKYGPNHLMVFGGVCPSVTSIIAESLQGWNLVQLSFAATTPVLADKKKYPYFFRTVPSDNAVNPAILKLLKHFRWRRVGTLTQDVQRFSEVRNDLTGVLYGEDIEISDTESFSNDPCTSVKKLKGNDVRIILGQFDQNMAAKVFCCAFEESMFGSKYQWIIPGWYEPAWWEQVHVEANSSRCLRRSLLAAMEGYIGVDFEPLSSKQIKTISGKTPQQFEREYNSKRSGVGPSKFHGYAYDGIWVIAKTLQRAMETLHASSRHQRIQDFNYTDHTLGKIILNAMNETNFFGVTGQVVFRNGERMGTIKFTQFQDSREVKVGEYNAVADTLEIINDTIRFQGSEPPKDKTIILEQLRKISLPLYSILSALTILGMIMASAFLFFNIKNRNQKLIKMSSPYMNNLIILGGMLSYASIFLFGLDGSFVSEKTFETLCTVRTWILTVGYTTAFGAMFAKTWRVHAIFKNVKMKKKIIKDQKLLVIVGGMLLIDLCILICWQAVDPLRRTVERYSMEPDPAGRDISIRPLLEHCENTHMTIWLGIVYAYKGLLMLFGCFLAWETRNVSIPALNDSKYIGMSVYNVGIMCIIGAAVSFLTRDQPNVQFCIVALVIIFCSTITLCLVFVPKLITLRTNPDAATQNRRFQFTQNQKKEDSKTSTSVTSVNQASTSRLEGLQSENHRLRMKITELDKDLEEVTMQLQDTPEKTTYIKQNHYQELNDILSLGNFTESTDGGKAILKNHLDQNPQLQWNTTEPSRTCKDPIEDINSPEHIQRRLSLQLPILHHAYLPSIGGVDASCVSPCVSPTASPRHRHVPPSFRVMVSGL

SMILES | EC50 [nM]
CC(=O)Nc1cccc(-c2nn(C(C)c3ccc(Cl)cc3)c(=O)c3c(C)noc23)c1 (stereo not shown) [Example 78, N-(3-{5-[1-(4-chlorophenyl)ethyl]-3-methyl-4-oxo-4,5-dihydro[1,2]oxazolo[4,5-d]pyridazin-7-yl}phenyl)acetamide] | 6350
COc1ccc(C(F)(F)F)cc1-c1nn(C(C)c2ccc(Cl)cc2)c(=O)c2c(C)noc12 (stereo not shown) [Example 79, 5-[1-(4-chlorophenyl)ethyl]-7-[2-methoxy-5-(trifluoromethyl)phenyl]-3-methyl[1,2]oxazolo[4,5-d]pyridazin-4(5H)-one] | 511
CNC(=O)c1ccc(OC)c(-c2nn([C@@H](C)c3ccc(Cl)cc3)c(=O)c3c(C)noc23)c1 [Example 82, 3-{5-[(1S)-1-(4-chlorophenyl)ethyl]-3-methyl-4-oxo-4,5-dihydro[1,2]oxazolo[4,5-d]pyridazin-7-yl}-4-methoxy-N-methylbenzamide] | 23
Cc1noc2c(-c3ccc(F)cc3)nn(Cc3ccc(Cl)cc3)c(=O)c12 [Example 83, 5-(4-chlorobenzyl)-7-(4-fluorophenyl)-3-methyl[1,2]oxazolo[4,5-d]pyridazin-4(5H)-one] | 3090
CC(=O)Nc1cccc(-c2nn(Cc3cc(C(F)(F)F)ccc3F)c(=O)c3c(C)noc23)c1 [Example 85, N-(3-{5-[2-fluoro-5-(trifluoromethyl)benzyl]-3-methyl-4-oxo-4,5-dihydro[1,2]oxazolo[4,5-d]pyridazin-7-yl}phenyl)acetamide] | 2620
Cc1noc2c(-c3cccnc3N)nn(C(C)c3ccc(Cl)cc3)c(=O)c12 (stereo not shown) [Example 86, 7-(2-aminopyridin-3-yl)-5-[1-(4-chlorophenyl)ethyl]-3-methyl[1,2]oxazolo[4,5-d]pyridazin-4(5H)-one] | 2760
COc1ccc(-c2nn(Cc3ccc(Cl)cc3)c(=O)c3c(C)noc23)c(OC)c1 [Example 87, 5-(4-chlorobenzyl)-7-(2,4-dimethoxyphenyl)-3-methyl[1,2]oxazolo[4,5-d]pyridazin-4(5H)-one] | 1030
CCCc1noc2c(-c3cccc(NC(C)=O)c3)nn(Cc3ccc(Cl)cc3)c(=O)c12 [Example 91, N-{3-[5-(4-chlorobenzyl)-4-oxo-3-propyl-4,5-dihydro[1,2]oxazolo[4,5-d]pyridazin-7-yl]phenyl}acetamide] | 2120
COc1ccc(OC)c(-c2nn(Cc3ccc(C(F)(F)F)cc3)c(=O)c3c(C)noc23)c1 [Example 95, 7-(2,5-dimethoxyphenyl)-3-methyl-5-[4-(trifluoromethyl)benzyl][1,2]oxazolo[4,5-d]pyridazin-4(5H)-one] | 1740
Cc1noc2c(-c3cc(F)ccc3N)nn(C(C)c3ccc(Cl)cc3)c(=O)c12 (stereo not shown) [Example 97, 7-(2-amino-5-fluorophenyl)-5-[1-(4-chlorophenyl)ethyl]-3-methyl[1,2]oxazolo[4,5-d]pyridazin-4(5H)-one] | 1850
COc1ccc(C(=O)N2CCCC2)cc1-c1nn(C(C)c2ccc(Cl)cc2)c(=O)c2c(C)noc12 (stereo not shown) [Example 98, 5-[1-(4-chlorophenyl)ethyl]-7-[2-methoxy-5-(pyrrolidin-1-ylcarbonyl)phenyl]-3-methyl[1,2]oxazolo[4,5-d]pyridazin-4(5H)-one] | 450
Cc1noc2c(-c3ccccc3O)nn(C(C)c3ccc(Cl)cc3)c(=O)c12 (stereo not shown) [Example 100, 5-[1-(4-chlorophenyl)ethyl]-7-(2-hydroxyphenyl)-3-methyl[1,2]oxazolo[4,5-d]pyridazin-4(5H)-one] | 667
COc1ccccc1-c1nn(Cc2ccc(OC)c(C(F)(F)F)c2)c(=O)c2c(C)noc12 [Example 101, 7-(2-methoxyphenyl)-5-[4-methoxy-3-(trifluoromethyl)benzyl]-3-methyl[1,2]oxazolo[4,5-d]pyridazin-4(5H)-one] | 3710
COc1ccc(OC)c(-c2nn(Cc3ccc(Cl)cc3)c(=O)c3c(C)noc23)c1 [Example 102, 5-(4-chlorobenzyl)-7-(2,5-dimethoxyphenyl)-3-methyl[1,2]oxazolo[4,5-d]pyridazin-4(5H)-one] | 846
COc1ccc(NC(C)=O)cc1-c1nn(C(C)c2ccc(C(F)(F)F)cc2)c(=O)c2c(C)noc12 (stereo not shown) [Example 103, N-[4-methoxy-3-(3-methyl-4-oxo-5-{(1)-1-[4-(trifluoromethyl)phenyl]ethyl}-4,5-dihydro[1,2]oxazolo[4,5-d]pyridazin-7-yl)phenyl]acetamide] | 439
COc1ccc(NC(C)=O)cc1-c1nn([C@H](C)c2ccc(C(F)(F)F)cc2)c(=O)c2c(C)noc12 [Example 105, N-[4-methoxy-3-(3-methyl-4-oxo-5-{(1R)-1-[4-(trifluoromethyl)phenyl]ethyl}-4,5-dihydro[1,2]oxazolo[4,5-d]pyridazin-7-yl)phenyl]acetamide] | 33
Cc1noc2c(-c3cccc(C(N)=O)c3)nn(C(C)c3ccc(Cl)cc3)c(=O)c12 (stereo not shown) [Example 106, 3-{5-[1-(4-chlorophenyl)ethyl]-3-methyl-4-oxo-4,5-dihydro[1,2]oxazolo[4,5-d]pyridazin-7-yl}benzamide] | 847

Next, values leading:

EC50 [nM] | SMILES
1470 | CC(=O)Nc1ccc(C)c(-c2nn(Cc3ccc(C(F)(F)F)cc3)c(=O)c3c(C)noc23)c1 [Example 107, N-(4-methyl-3-{3-methyl-4-oxo-5-[4-(trifluoromethyl)benzyl]-4,5-dihydro[1,2]oxazolo[4,5-d]pyridazin-7-yl}phenyl)acetamide]
1210 | Cc1noc2c(-c3cccnc3)nn(C(C)c3ccc(Cl)cc3)c(=O)c12 (stereo not shown) [Example 109, 5-[1-(4-chlorophenyl)ethyl]-3-methyl-7-(pyridin-3-yl)[1,2]oxazolo[4,5-d]pyridazin-4(5H)-one]
> 10000 | CNC(=O)c1ccc(OC)c(-c2nn([C@H](C)c3ccc(Cl)cc3)c(=O)c3c(C)noc23)c1 [Example 111, 3-{5-[(1R)-1-(4-chlorophenyl)ethyl]-3-methyl-4-oxo-4,5-dihydro[1,2]oxazolo[4,5-d]pyridazin-7-yl}-4-methoxy-N-methylbenzamide]
3630 | CC(=O)Nc1c(F)ccc(-c2nn([C@H](C)c3ccc(C(F)(F)F)cc3)c(=O)c3c(C)noc23)c1C [Example 112, N-[6-fluoro-2-methyl-3-(3-methyl-4-oxo-5-{(1R)-1-[4-(trifluoromethyl)-phenyl]ethyl}-4,5-dihydro[1,2]oxazolo[4,5-d]pyridazin-7-yl)phenyl]acetamide]
3840 | Cc1noc2c(-c3cncnc3)nn(C(C)c3ccc(Cl)cc3)c(=O)c12 (stereo not shown) [Example 113, 5-[1-(4-chlorophenyl)ethyl]-3-methyl-7-(pyrimidin-5-yl)[1,2]oxazolo[4,5-d]pyridazin-4(5H)-one]
3800 | Cc1nn(C(C)c2ccc(Cl)cc2)c(=O)c2c(C)noc12 (stereo not shown) [Example 114, 5-[1-(4-chlorophenyl)ethyl]-3,7-dimethyl[1,2]oxazolo[4,5-d]pyridazin-4(5H)-one]
4120 | CCn1nccc1-c1nn(C(C)c2ccc(Cl)cc2)c(=O)c2c(C)noc12 (stereo not shown) [Example 115, 5-[1-(4-chlorophenyl)ethyl]-7-(1-ethyl-1H-pyrazol-5-yl)-3-methyl[1,2]oxazolo[4,5-d]pyridazin-4(5H)-one]
855 | Cc1noc2c(-c3cnc4cc[nH]c4c3)nn(C(C)c3ccc(Cl)cc3)c(=O)c12 (stereo not shown) [Example 116, 5-[1-(4-chlorophenyl)ethyl]-3-methyl-7-(1H-pyrrolo[3,2-b]pyridin-6-yl)[1,2]oxazolo[4,5-d]pyridazin-4(5H)-one]
